Assays:
Female mice = assay: In-vivo induction of anesthesia (graded sedation level after IP injection)
Procedure: Prodrugs were formulated as aqueous isotonic solutions at pH 7.4 in sterile water before administration to animals. Female mice were obtained from Charles River Laboratories (Wilmington, Mass.). The volume of injection was set at […] and animals were dosed IP at 100 mg/kg, 125 mg/kg, 150 mg/kg and 200 mg/kg. The monitoring of distinguishable levels of sedation started immediately after an injection and was continued for a 2-h period post-injection. The sedation level was graded according to the behavioral and reflex activity of animals injected with progressively increasing doses of each compound. Animals were graded as alert and normal when there was no observable change in their behavior; alert with decreased motor activity when ataxia with some ability to walk was observed; and awake and recumbent when loss of righting reflex occurred. Animals reaching somnolence but retaining response to painful stimuli (toe or tail pinch) were graded as sedated with normal reflexes, whereas animals that lost response to painful stimuli were graded as sedated with decreased reflexes (anesthetic level of sedation). Death resulting from the overdose was also recorded as a last level.

[1] = pH stability in pH=4.1 sodium acetate buffer, analyzed by LC-MS; type: physicochemical; conditions: 100 mg in 10 mL pH=4.1 sodium acetate buffer, ambient temperature, 48 hours
Procedure: A solution was prepared by dissolving 100 mg of N-(2-Piperidin-1-yl-ethyl)-succinamic acid 2,6-diisopropylphenyl ester hydrochloride in 10 mL of pH=4.1 sodium acetate buffer. The buffer was prepared by adding NaOH to a 20% aqueous acetic acid solution until the desired pH was reached. The solution was incubated at ambient temperature and analyzed by LC-MS after 48 hours.

SMILES: CC(C)c1cccc(C(C)C)c1OC(=O)CCC(=O)NCCN1CCCC1.Cl [N-(2-pyrrolidin-1-yl-ethyl)-succinamic acid 2,6-diisopropylphenyl ester hydrochloride]
- Duration of anesthesia (Female mice; 150 mg/kg): 10 min
- End of anesthesia (time post injection, in parentheses) (Female mice; 150 mg/kg, time post injection): 14 min
- Full anesthesia (Female mice; 150 mg/kg, time post injection): 4 min
- Onset of sedation (Female mice; 150 mg/kg, time post injection): 2 min
- Duration of anesthesia (Female mice; 200 mg/kg): 21 min
- End of anesthesia (time post injection, in parentheses) (Female mice; 200 mg/kg, time post injection): 25 min
- Full anesthesia (Female mice; 200 mg/kg, time post injection): 4 min
- Onset of sedation (Female mice; 200 mg/kg, time post injection): 2 min

SMILES: CC(C)c1cccc(C(C)C)c1OC(=O)CCC(=O)NCCN1CCCCC1.Cl [N-(2-piperidin-1-yl-ethyl)-succinamic acid 2,6-diisopropylphenyl ester hydrochloride]
- Duration of anesthesia (Female mice; 100 mg/kg): 11 min
- Full anesthesia (Female mice; 100 mg/kg): not reached
- End of effect (time post injection, in parentheses) (Female mice; 100 mg/kg, time post injection): 13 min
- Onset of sedation (Female mice; 100 mg/kg, time post injection): 2 min
- Duration of sedation (Female mice; 125 mg/kg): 13 min
- Full anesthesia (Female mice; 125 mg/kg): not reached
- End of sedation (time post injection, in parentheses) (Female mice; 125 mg/kg, time post injection): 15 min
- Onset of sedation (Female mice; 125 mg/kg, time post injection): 2 min
- Duration of anesthesia (Female mice; 200 mg/kg): 12 min
- End of anesthesia (time post injection, in parentheses) (Female mice; 200 mg/kg, time post injection): 16 min
- Full anesthesia (Female mice; 200 mg/kg, time post injection): 5 min
- Onset of sedation (Female mice; 200 mg/kg, time post injection): 2 min
- Decomposition in solution [1]: No trace of decomposition

From patent US7691904B2, “pH sensitive prodrugs of 2,6-diisopropylphenol” (Auspex Pharmaceuticals, Inc, priority 2003, dated 2010)
